These results are taken from ChEMBL document CHEMBL1125876, “Conformationally defined neurotransmitter analogues. Selective inhibition of glutamate uptake by one pyrrolidine-2,4-dicarboxylate diastereomer” (1991).

What all share (parameters): scale not given: the % may be the effect or the level left
For one assay, the species on record is Rattus norvegicus. Put plainly: Comparative inhibition of L-Glutamate uptake at the concentration of 5 uM of [3H]-L- glutamate radioligand. In kind it is functional.
Assay [1] concerns the target Glutamate receptor ionotropic, kainate 2 (Rattus norvegicus) (UniProt P42260). Put plainly: Compound tested for its ability to inhibit [3H]- KA binding to ionotropic glutamate receptor kainate at the concentration of 100 uM.
The target in assay [2] is T1, Glutamate NMDA receptor (Rattus norvegicus) (UniProt P35439+Q00959+Q00960+Q00961+Q62645+Q8VHN2+Q9R1M7). As to the kind of experiment: Compound tested for its ability to inhibit [3H]- -L-Glu binding to N-methyl-D-aspartate glutamate receptor at the concentration of 100 uM. The assay is classed as protein-complex assay.
Assay [3] deals with T1, Glutamate NMDA receptor (Rattus norvegicus). As to the kind of experiment: Compound tested for its ability to inhibit [3H]- -L-Glu binding to N-methyl-D-aspartate glutamate receptor at the concentration of 20 uM. The assay is classed as protein-complex assay.

Sequence of Glutamate receptor ionotropic, kainate 2 (Rattus norvegicus) (P42260 whole entry): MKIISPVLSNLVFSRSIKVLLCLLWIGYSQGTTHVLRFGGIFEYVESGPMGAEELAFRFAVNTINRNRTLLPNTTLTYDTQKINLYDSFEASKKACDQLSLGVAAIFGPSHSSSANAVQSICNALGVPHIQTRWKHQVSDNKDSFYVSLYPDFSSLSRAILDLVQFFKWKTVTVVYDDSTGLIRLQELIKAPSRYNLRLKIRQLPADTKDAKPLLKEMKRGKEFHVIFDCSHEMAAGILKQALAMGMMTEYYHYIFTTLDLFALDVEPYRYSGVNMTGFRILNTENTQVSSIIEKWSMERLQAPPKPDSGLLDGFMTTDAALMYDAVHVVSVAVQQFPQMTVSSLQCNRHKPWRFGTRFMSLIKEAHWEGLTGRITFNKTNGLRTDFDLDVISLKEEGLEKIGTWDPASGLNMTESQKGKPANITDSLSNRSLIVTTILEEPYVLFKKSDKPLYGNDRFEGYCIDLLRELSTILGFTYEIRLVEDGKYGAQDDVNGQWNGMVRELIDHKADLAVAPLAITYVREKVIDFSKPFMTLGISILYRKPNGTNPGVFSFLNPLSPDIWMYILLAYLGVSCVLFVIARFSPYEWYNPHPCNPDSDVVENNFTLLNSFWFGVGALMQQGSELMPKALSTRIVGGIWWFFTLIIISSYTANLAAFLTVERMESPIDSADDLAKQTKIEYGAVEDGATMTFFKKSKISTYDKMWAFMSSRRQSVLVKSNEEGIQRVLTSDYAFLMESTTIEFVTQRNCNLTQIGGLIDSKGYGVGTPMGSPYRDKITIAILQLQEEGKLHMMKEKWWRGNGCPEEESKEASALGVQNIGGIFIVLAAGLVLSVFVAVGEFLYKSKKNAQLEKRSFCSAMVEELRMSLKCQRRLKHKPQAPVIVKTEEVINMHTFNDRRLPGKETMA

With `N[C@H](CC(=O)O)C(=O)O` [D-ASPARTATE], the Control in the assay filed under Rattus norvegicus turned out to be 58%.
Consider `O=C(O)[C@H]1CN[C@H](C(=O)O)C1`, for which the Control was found to be 45% in the assay listed under Rattus norvegicus, 102% in assay [1] and 87% in assay [2].
In the assay listed under Rattus norvegicus, `CC(C)[C@H]1CN[C@H](C(=O)O)[C@H]1CC(=O)O` [DIHYDROKAINATE] showed a Control of 93%.
In the case of `O=C(O)[C@@H]1CN[C@H](C(=O)O)C1`, the Control in assay [1] is 100%; in assay [2] it was 89%.
Turning to `O=C(O)[C@H]1CN[C@@H](C(=O)O)C1`, the Control in assay [1] worked out at 101%; in assay [3], 76%; in assay [2], 38%.
On to `O=C(O)[C@@H]1CN[C@@H](C(=O)O)C1`, for which the values for the Control in assay [1] and in assay [2] were 92% and 95%, respectively.
